Laboratory results taken from US5621133A (priority 1995, dated 1997).
Where a name gives a salt, the structure may show the parent alone.

Key:
dopamine D-1 receptor [1] = molecular target: dopamine D-1 receptor (Rattus norvegicus, UniProt P18901); test: biochemical; conditions: D-1 Ki, rat caudate, [125I]SCH-23982
Description: The compounds compete with the radiolabeled ligand for occupancy of the receptors and the molar potency of each compound was quantified.
The Ki values are inversely proportional to the affinity of the compound for the receptor.

dopamine D-1 receptor [2] = conditions: for Intrinsic Activity (adenylate cyclase assay): dopamine = 100, goldfish retina or rat striatum; for EC50: read-out: EC50 (agonist activity in adenylate cyclase assay), tissue from goldfish retina or rat striatum
Procedure: In order to determine agonist activity, cell-free tissue homogenates are incubated in an ionic buffer solution containing ATP and the compound being evaluated. The tissue was obtained from either goldfish retina or rat striatum.

anesthetized dogs = test: Cardiovascular pharmacology - hemodynamic studies in anesthetized dogs; assay type: in vivo, dog (Beagle); conditions: cumulative intraaortic infusion above renal arteries; dose ranges (g/kg/min): 2A 3-10, 3 1-10, 35 1-3, 36 1-10, 37 1-30
Procedure: Male Beagle dogs were anesthetized with pentobarbital (30 mg/kg. i.v.) and maintained with i.v. infusion (Abbott/Shaw Life Care Pump, Model II/D) to maintain stable cardiovascular function. The dogs were […] with a cuffed endotracheal tube and ventilated with room air by means of a positive pressure respiratory pump. Expired respiratory CO2 was monitored with a Beckman LB-2 gas analyzer and maintained at 5% by appropriate pump adjustments. The dogs were maintained at a body temperature of 37.5°±1.0° C. with a thermostatically controlled animal table. Polyethylene catheters were placed in the abdominal aorta via the femoral and carotid arteries for blood pressure and left ventricular pressure recordings. A Swan-Ganz thermodilution catheter with a 15 cm proximal port was placed in the jugular vein for central venous and pulmonary arterial recordings and for determination of cardiac output (American Edwards Cardiac Output Computer, Model COM-1). Heart rate and electrocardiogram (ECG) recordings were made from a Lead II ECG connection. […] A calibrated electromagnetic flow probe (Carolina Medical Electronics) was positioned around the renal artery. The abdominal cavity is closed with wound clips. Recordings were made on a Grass polygraph. An additional small polyethylene catheter was inserted into a branch of the left femoral artery and the tip positioned in the aorta above the renal arteries. […] A thirty-fold dose-response-curve was administered by varying flow rate from 0.01 to 0.30 mL/minute.

dopamine D-2 receptor = dopamine D-2 receptor (Rattus norvegicus, UniProt P61169); test: biochemical; assay type: binding; conditions: rat caudate, [125I]-p-aminophenylethyl spiroperidol; read-out: D-2 Ki
Procedure: Homogenized rat caudate was the source of the D-2 receptors. […] The molar affinity of the compound for the receptor binding site was calculated by the same method used for the D-1 receptor assay, assuming a competitive interaction between the compound and the radiolabeled ligand.

[3] = tested on: spontaneously hypertensive rats; test: Diuretic effects in spontaneously hypertensive rats; assay type: in vivo, rat; conditions: 3.0 mg/kg i.v., 2 hour interval
Procedure: Male, spontaneously hypertensive rats (SHR), weighing 285-350 grams were used to evaluate the diuretic effects of one of the compounds of the invention. Following an overnight fasting period with free access to drinking water, the rats received an intragastric fluid load of 0.9 saline at 5% of their body weight. Simultaneously with the load, the rats were dosed with a test compound or vehicle and placed individually in stainless steel metabolic cages where they had access to drinking water throughout the duration of the experiment. For intravenous administration, the rats were instrumented with indwelling cannulas placed into the jugular vein at least one week prior to the experiment.
Urine was collected at 2 and 4 hours following drug administration. The volume of excreted urine at each collection interval was measured accurately and the samples were analyzed for sodium, potassium and chloride ions. Sodium and potassium were measured using a Digital Readout Flame Photometer (Instrumentation Labs). Chloride was measured by the method of Shales and Shales, J Biol Chem 140:879 (1941). The statistical analysis of the data was computed by an off-line computer program. In this program, a comparison test is made between the vehicle (control) group and each treatment group for all variables at each time interval of the experiment. The test of statistical significance is based on the Student's t-test, where the calculated t is a measure of the probability density function.
A control group of six rats received 0.1 mg/kg of saline solution acidified by ascorbic acid (0.3 mL). This solution was also the vehicle for the test compound.

rats = conditions: cited from earlier work
Parkinson's Disease = conditions: cited from earlier work
[4] = tested on: striatal dopamine receptors; test: Rotation behavior assay of in vivo activity (6-hydroxydopamine lesioned rat rotational model); conditions: for ED50 s.c. (rotation behavior): injected subcutaneously

Chain of dopamine D-1 receptor (Rattus norvegicus, UniProt P18901) (P18901 whole entry): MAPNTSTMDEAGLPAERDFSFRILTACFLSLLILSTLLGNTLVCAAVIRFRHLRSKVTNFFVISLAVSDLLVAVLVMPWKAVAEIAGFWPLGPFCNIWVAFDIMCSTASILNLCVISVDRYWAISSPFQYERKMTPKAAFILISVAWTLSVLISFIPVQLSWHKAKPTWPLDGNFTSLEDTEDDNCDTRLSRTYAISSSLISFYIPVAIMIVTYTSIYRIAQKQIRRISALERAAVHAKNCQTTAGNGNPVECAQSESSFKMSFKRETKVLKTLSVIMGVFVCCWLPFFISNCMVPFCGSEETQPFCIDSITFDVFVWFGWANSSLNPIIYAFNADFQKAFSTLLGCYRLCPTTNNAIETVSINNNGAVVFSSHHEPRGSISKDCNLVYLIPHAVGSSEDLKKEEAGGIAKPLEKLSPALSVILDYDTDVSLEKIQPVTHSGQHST
Chain of dopamine D-2 receptor (P61169 whole entry): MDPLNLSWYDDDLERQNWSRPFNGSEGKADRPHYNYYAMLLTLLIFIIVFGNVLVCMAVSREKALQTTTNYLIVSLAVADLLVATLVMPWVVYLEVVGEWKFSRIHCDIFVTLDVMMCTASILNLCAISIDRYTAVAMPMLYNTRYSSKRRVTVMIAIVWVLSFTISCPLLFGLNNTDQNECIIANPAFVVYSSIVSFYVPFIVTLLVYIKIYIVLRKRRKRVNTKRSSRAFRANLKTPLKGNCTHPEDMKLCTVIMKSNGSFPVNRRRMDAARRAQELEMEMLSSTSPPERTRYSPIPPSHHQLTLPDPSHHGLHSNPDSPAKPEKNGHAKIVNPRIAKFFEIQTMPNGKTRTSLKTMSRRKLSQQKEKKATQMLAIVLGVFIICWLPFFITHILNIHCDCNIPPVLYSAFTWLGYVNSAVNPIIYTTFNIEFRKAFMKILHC

Question: With `Br.NC[C@@H]1C[C@H](C2CCCCC2)Cc2c1ccc(O)c2O` [Example 37, [1R,3S]1-Aminomethyl-3-cyclohexyl-5,6-dihydroxy-1,2,3,4-tetrahydronaphthalene Hydrobromide] as the molecule, how does the Ki (dopamine D-1 receptor [1]) read?
Answer: Its Ki is 57 nM.

Question: What about the “Intrinsic Activity (adenylate cyclase assay)” value (shortened to “Intrinsic Activity”) (dopamine D-1 receptor [2]) of the same molecule?
Answer: Its value is 56.

Question: What about the EC50 (dopamine D-1 receptor [2]) of the same molecule?
Answer: Its EC50 is 31 nM.

Question: And the “Max Decrease MAP (mean arterial blood pressure)” value (“Max Decrease MAP” for short) (anesthetized dogs)?
Answer: The value was 39%.

Question: What about the “Max Increase RBF (renal blood flow)” value (anesthetized dogs) of the same molecule?
Answer: The value was 48%.

Question: What about the Ki (dopamine D-2 receptor) of the same molecule?
Answer: The Ki was 10000 nM.

Question: Which Urine potassium ([3]; control 0.29, n = 6) does the source give for `Br.NCC1=CC(c2ccccc2)Cc2c1ccc(O)c2O` (stereo not shown) [Example 2A, 1-Aminomethyl-5,6-dihydroxy-3-phenyl-3,4-dihydronaphthalene Hydrobromide] here?
Answer: Its Urine potassium is 0.55 meq/kg.

Question: What about the Urine sodium ([3]; control 1.60, n = 6) of the same molecule?
Answer: The Urine sodium was 2.35 meq/kg.

Question: What about the Urine chloride ([3]; control 1.87, n = 6) of the same molecule?
Answer: The Urine chloride was 2.71 meq/kg.

Question: And the Urine volume ([3]; control 13.02, n = 6)?
Answer: The Urine volume was 22.57 mL/kg.

Question: What about the “Intrinsic Activity” value (dopamine D-1 receptor [2]) of the same molecule?
Answer: The value was 56.

Question: What about the “Max Decrease MAP” value (anesthetized dogs) of the same molecule?
Answer: Its value is 32%.

Question: What about the “Max Increase RBF (renal blood flow)” value (anesthetized dogs) of the same molecule?
Answer: The value was 27%.

Question: What about the Ki (dopamine D-2 receptor) of the same molecule?
Answer: The Ki was greater than 10000 nM.

Question: Which food intake (rats) does the source give for `Oc1cc2c(cc1O)C(c1ccccc1)CNCC2` (stereo not shown) [SKF 38393] here?
Answer: The food intake was “decrease food intake”.

Question: With `CC(C)C[C@H]1C(=O)N2CCC[C@H]2[C@]2(O)O[C@](NC(=O)[C@@H]3C=C4c5cccc6[nH]c(Br)c(c56)C[C@H]4N(C)C3)(C(C)C)C(=O)N12` [bromocryptine] as the molecule, how does the “effect on L-DOPA requirement” value (Parkinson's Disease) read?
Answer: The value was “lowers the amount of L-DOPA required to achieve the maximal therapeutic response”.

Question: Which “ED50 s.c. (rotation behavior)” value [4] does the source give for `CC(=O)Oc1ccc2c(c1OC(C)=O)CC(c1ccccc1)C=C2CN.Cl` (stereo not shown) [Example 3, 5,6-Bis(acetoxy)-1-aminomethyl-3-phenyl-3,4-dihydronaphthalene Hydrochloride] here?
Answer: The value was 0.91 µmol/kg.

Question: And the “Max Decrease MAP” value (anesthetized dogs)?
Answer: The value was 8%.

Question: And the “Max Increase RBF (renal blood flow)” value (anesthetized dogs)?
Answer: Its value is 83%.

Question: For `Br.NCC1=CC(C2CCCCC2)Cc2c1ccc(O)c2O` (stereo not shown) [Example 36, 1-Aminomethyl-3-cyclohexyl-5,6-dihydroxy-3,4-dihydronaphthalene Hydrobromide], which Ki (dopamine D-1 receptor [1]) is on record?
Answer: The Ki was 200 nM.

Question: And the “ED50 s.c. (rotation behavior)” value [4]?
Answer: The value was 0.5 µmol/kg.

Question: What about the “ED50 oral (rotation behavior)” value [4] of the same molecule?
Answer: Its value is 170 µmol/kg.

Question: And the “Intrinsic Activity” value (dopamine D-1 receptor [2])?
Answer: Its value is 57.

Question: And the EC50 (dopamine D-1 receptor [2])?
Answer: The EC50 was 79 nM.

Question: And the “Max Decrease MAP” value (anesthetized dogs)?
Answer: The value was 13%.

Question: And the “Max Increase RBF (renal blood flow)” value (anesthetized dogs)?
Answer: Its value is 94%.

Question: What about the Ki (dopamine D-2 receptor) of the same molecule?
Answer: The Ki was greater than 10000 nM.

Question: Which Ki (dopamine D-1 receptor [1]) does the source give for `NC[C@H]1C[C@@H](c2ccccc2)Cc2c1ccc(O)c2O` (relative stereo) [Example 35, [1,3-cis]1-Aminomethyl-5,6-dihydroxy-3-phenyl-1,2,3,4-tetrahydronaphthalene Hydrobromide] here?
Answer: Its Ki is 30 nM.

Question: And the “ED50 oral (rotation behavior)” value [4]?
Answer: The value was 21.4 µmol/kg.

Question: And the “Intrinsic Activity” value (dopamine D-1 receptor [2])?
Answer: Its value is 66.

Question: What about the EC50 (dopamine D-1 receptor [2]) of the same molecule?
Answer: Its EC50 is 10 nM.

Question: And the “Max Decrease MAP” value (anesthetized dogs)?
Answer: Its value is 26%.

Question: What about the “Max Increase RBF (renal blood flow)” value (anesthetized dogs) of the same molecule?
Answer: The value was 35%.

Question: What about the Ki (dopamine D-2 receptor) of the same molecule?
Answer: Its Ki is 760 nM.
